The text below walks through data of publication PMC11284800 (Journal of Medicinal Chemistry, 2024).

Molecules are shown by their SMILES. Several values for one entry are separate records, joined by “and”; a condition that tells them apart may be missing. Identical values can stand only once. Like-named read-outs stand apart in the source and are kept apart here.

In data set [1] the target is hCB1R. The conditions noted are these: cited from earlier work.
Data set [2] has as its target T1, hCB1R (Homo sapiens, UniProt P21554). The experiment in a line: HTRF cAMP assay, antagonist mode (forskolin with CP55,940). The conditions noted are these: for Emax: read-out: Variation of Emax.
Target sequence in this assay (P21554 whole entry): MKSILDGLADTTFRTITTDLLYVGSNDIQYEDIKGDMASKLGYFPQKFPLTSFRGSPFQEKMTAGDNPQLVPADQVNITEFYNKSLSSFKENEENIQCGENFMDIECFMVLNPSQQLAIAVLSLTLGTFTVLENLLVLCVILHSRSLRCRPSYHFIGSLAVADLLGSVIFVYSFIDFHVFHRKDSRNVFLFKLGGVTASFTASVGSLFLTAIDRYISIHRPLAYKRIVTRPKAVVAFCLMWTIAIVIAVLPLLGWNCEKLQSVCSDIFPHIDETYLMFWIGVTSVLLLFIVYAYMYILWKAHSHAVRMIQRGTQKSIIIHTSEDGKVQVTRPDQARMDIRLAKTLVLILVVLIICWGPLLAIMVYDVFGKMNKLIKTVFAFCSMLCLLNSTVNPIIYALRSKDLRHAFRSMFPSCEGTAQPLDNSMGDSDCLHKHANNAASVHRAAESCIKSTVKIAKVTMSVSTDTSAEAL
Procedure: The homogeneous time-resolved fluorescence (HTRF) cAMP assay was conducted following the manufacturer’s protocol for the cAMP-Gs Dynamic kit. […] After 15 min, reactions were stopped by the 1× cAMP-d2 conjugate in lysis buffer (5 μL/well), followed by 1× anti-cAMP cryptate conjugate in lysis buffer (5 μL/well). Following a 1 h incubation at room temperature, the plates were read in a Revvity Envision reader for time-resolved fluorescence resonance energy transfer detection at 620 and 665 nm. The HTRF ratio versus compound concentrations was plotted using Prism 8.1 (GraphPad). HTRF ratio = (signal 665 nm/signal 620 nm) × 10^4.
Data set [3] deals with CB1R. The conditions noted are these: cited from earlier work.
Data set [4] deals with CB2R. The note with it: cited from earlier work.
The subject of data set [5] is CB1R. Also on record: method as in PMID 8070571, PMID 27240274, PMID 24175572. The note with it: cited from earlier work.
Data set [6] addresses T2, human CB2R (Homo sapiens, UniProt P34972).
T2 construct: host or cells: CHO-K1 (CHOK1hCB2_bgal)
Nature of the data set: [3H]CP55,940 displacement assay on CHO membranes, CB2R. The format is binding. The conditions noted are these: for Ki: [3H]CP55,940 displacement; for hCB2R % displacement at 10 µM: [3H]CP55,940 displacement at 10 µM compound, ± SEM.

The target in data set [7] is T1, hCB1R. Nature of the data set: [3H]CP55,940 displacement assay on CHO membranes, CB1R. The format is binding. The arrangement: host or cells: CHO-K1 (CHOK1hCB1_bgal). The note with it: for Ki: [3H]CP55,940 displacement.
Target sequence in this assay (P21554 whole entry): as above
Data set [8] addresses T1, hCB1R. Nature of the data set: HTRF cAMP assay, agonist / inverse agonist mode. The format is cell-based. The arrangement: expressed in transfected cells; host or cells: CHO. The note with it: for Functional activity at CB1R (in words): CB1R cAMP HTRF assay.
Target sequence in this assay (P21554 whole entry): as above
The nature of data set [9]: Photophysical characterization in PBS. The format is physicochemical. The note with it: PBS pH 7.4.
Data set [10] has as its target T1, hCB1R. The experiment in a line: biochemical.
Target sequence in this assay (P21554 91-472): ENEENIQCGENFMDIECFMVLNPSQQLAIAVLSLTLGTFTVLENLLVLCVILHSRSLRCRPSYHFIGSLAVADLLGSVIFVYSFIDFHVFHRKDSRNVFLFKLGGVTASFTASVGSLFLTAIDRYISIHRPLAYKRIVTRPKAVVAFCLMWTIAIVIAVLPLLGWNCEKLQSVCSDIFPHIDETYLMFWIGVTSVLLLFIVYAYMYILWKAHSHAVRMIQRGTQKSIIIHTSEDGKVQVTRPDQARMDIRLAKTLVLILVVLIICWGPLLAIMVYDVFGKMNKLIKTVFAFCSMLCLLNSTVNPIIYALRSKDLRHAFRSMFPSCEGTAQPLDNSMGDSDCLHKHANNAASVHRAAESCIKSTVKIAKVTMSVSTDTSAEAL
[11] abbreviates: CHO membranes stably expressing human CB2R, means of three experiments, read-out: hCB2R Ki.
[12] abbreviates: hCB2R Ki, CHO membranes stably expressing human CB2R, means of three experiments.
Setting [13] is: hCB1R Ki, CHO membranes stably expressing human CB1R, means of three experiments.

T2 sequence (P34972 whole entry): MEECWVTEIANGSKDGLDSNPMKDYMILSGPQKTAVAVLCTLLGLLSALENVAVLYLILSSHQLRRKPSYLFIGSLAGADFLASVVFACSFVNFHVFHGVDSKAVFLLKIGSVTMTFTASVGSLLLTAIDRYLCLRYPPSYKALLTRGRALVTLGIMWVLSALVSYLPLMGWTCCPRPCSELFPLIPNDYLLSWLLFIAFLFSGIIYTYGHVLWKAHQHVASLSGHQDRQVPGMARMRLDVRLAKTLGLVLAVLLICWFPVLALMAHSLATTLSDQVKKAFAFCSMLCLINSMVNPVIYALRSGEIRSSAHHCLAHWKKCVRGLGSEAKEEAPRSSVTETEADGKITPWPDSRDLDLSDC

Regarding `CCCCCCC(C)(C)c1cc(O)c2c(c1)OC(C)(C)c1ccc(CNCCCCCCNC(=O)CCCCCC[N+]3=C(/C=C/C=C/C=C4/N(C)c5ccc(S(=O)(=O)O)cc5C4(C)C)C(C)(C)c4cc(S(=O)(=O)[O-])ccc43)cc1-2` [ABP511], the Ki in data set [1] is 3.5 nM.
For `Cc1c(C(=O)NN2CCOCC2)nn(-c2ccc(Cl)cc2Cl)c1-c1ccc(I)cc1` [AM281, reference compound], the “Variation of Emax” value in [2] (antagonist mode, normalized to reference antagonist AM281) was -100%. Moreover, the “Antagonist activity (cAMP assay) pEC50 or pIC50 ± SEM” value in [2] (antagonist mode, n.a. is no activity) is recorded as 7.0 ± 0.04.
As to `Cc1c(C(=O)NC2CCCCC2)cc(-c2cc(C(F)(F)F)ccc2C(F)(F)F)n1CC1CCCO1` (centres unmarked) [Compound 5], the half-inhibitory concentration (IC50) in data set [3] was 8 nM; in [4] it was above 80 nM. The “Functional profile at CB1R (in words)” value in [5] is recorded as “inverse agonist”.
`O=C(NN1CCCCC1)c1nn(-c2ccc(Cl)cc2Cl)c2c1CCCc1cc(Cl)ccc1-2` [Compound 7, NESS-0327]: the Ki in data set [3] was 4.2 nM; in data set [4], 55.7 nM. Further, the “Functional profile at CB1R (in words)” value in [5] is “neutral antagonist”.
On to `O=C(NC1CCCCC1O)c1cnc(OCC2CC2)c(-c2ccc(F)cc2)c1` (centres unmarked) [Compound 8], for which the figures for the Ki in data set [3] and in data set [4] were 42.8 nM and above 10000 nM, respectively. Further, the “Functional profile at CB1R (in words)” value in data set [5] is “inverse agonist”.
For `COCCOc1ncc(C(=O)NC[C@](C)(O)C2CC2)nc1-c1ccc(Cl)cc1` [Compound 9], the inhibition constant (Ki) in [3] is 47.5 nM; in [4], above 475 nM. Moreover, the “Functional profile at CB1R (in words)” value in [5] is “inverse agonist”.
Take `CCOC(=O)C(CC)(CC)NC(=O)c1cc(-c2cc(C(F)(F)F)ccc2C(F)(F)F)n(C[C@H]2CCCO2)c1C` [Compound 14, Ethyl (R)-2-(5-(2,5-Bis(trifluoromethyl)phenyl)-2-methyl-1-((tetrahydrofuran-2-yl)methyl)-1H-pyrrole-3-carboxamido)-2-ethylbutanoate]: in [6] (setting [11]), the Ki was 306 nM. For the same compound, in [7] (hCB1R pKi ± SEM, CHO membranes), the inhibition constant (Ki) is 11 nM. Moreover, the “Ki(CB2R)/Ki(CB1R) selectivity” value in data set [7] (radioligand binding Ki ratio) is 28 fold. Moreover, in [2], the half-maximal inhibitory concentration (IC50) was 10 nM and the Emax is -107%. Also, in data set [8], the Emax is -46%, the 50% inhibitory concentration (IC50) was found to be 1.48 nM and the “Functional activity at CB1R (in words)” value is on record as “inverse agonists”.
As for `CCOC(=O)C(CC)(CC)NC(=O)c1nn(-c2ccc(Cl)cc2Cl)c(-c2ccc(Cl)cc2)c1C` [Compound 15, Ethyl 2-(5-(4-Chlorophenyl)-1-(2,4-dichlorophenyl)-4-methyl-1H-pyrazole-3-carboxamido)-2-ethylbutanoate], the Ki in [6] (setting [12]) was 9 nM; in data set [6] (hCB2R pKi ± SEM, CHO membranes), 8.51 nM; in [7] (hCB1R pKi ± SEM, CHO membranes), 28.2 nM. For the same compound, in data set [8], the Emax is -42%. Further, the IC50 in [8] was 13.2 nM. Moreover, the “Functional activity at CB1R (in words)” value in [8] was “inverse agonists”.
Regarding `CCOC(=O)C(CC)(CC)NC(=O)c1nn(-c2ccc(Cl)cc2Cl)c2c1CCCc1cc(Cl)ccc1-2` [Compound 16, Ethyl 2-(8-Chloro-1-(2,4-dichlorophenyl)-1,4,5,6-tetrahydrobenzo[6,7]cyclohepta[1,2-c]pyrazole-3-carboxamido)-2-ethylbutanoate], the Ki is 3.98 nM in data set [6] (hCB2R pKi ± SEM, CHO membranes) and 17.8 nM in data set [7] (hCB1R pKi ± SEM, CHO membranes). In addition, the “Functional activity at CB1R (in words)” value in data set [8] is on record as “no activity”.
Regarding `CCOC(=O)C(CC)(CC)NC(=O)c1cnc(OCC2CC2)c(-c2ccc(F)cc2)c1` [Compound 17, Ethyl 2-(6-(Cyclopropylmethoxy)-5-(4-fluorophenyl)nicotinamido)-2-ethylbutanoate], the Ki in data set [6] (setting [12]) is 6 nM; in data set [6] (hCB2R pKi ± SEM, CHO membranes), 6.46 nM; in data set [7] (setting [13]) it was 308 nM. For the same compound, the IC50 was 3980 nM in data set [2] and 43.6 nM in data set [8]. The figures for the Emax in data set [2] and in data set [8] were -116% and -48%, respectively. Also, in [8], the “Functional activity at CB1R (in words)” value is listed as “inverse agonists”.
`CCOC(=O)C(CC)(CC)NC(=O)c1cnc(OCCOC)c(-c2ccc(Cl)cc2)n1` [Compound 18, Ethyl 2-(6-(4-Chlorophenyl)-5-(2-methoxyethoxy)pyrazine-2-carboxamido)-2-ethylbutanoate] had an inhibition constant Ki in [6] (hCB2R pKi ± SEM, CHO membranes) of 11.2 nM. Besides, the inhibition constant Ki in [7] (setting [13]) was determined as 817 nM. In data set [8], the Emax was -41%, the half-maximal inhibitory concentration (IC50) was found to be 191 nM and the “Functional activity at CB1R (in words)” value is listed as “inverse agonists”.
`CCOC(=O)C(CC)(CC)NC(=O)c1nn(Cc2cccc(F)c2)c2ccccc12` [Compound 19, Ethyl 2-Ethyl-2-(1-(3-fluorobenzyl)-1H-indazole-3-carboxamido)butanoate] had a Ki in data set [6] (setting [12]) of 1 nM. Moreover, in data set [6] (hCB2R pKi ± SEM, CHO membranes), the Ki is 0.631 nM. Besides, in data set [7] (hCB1R pKi ± SEM, CHO membranes), the inhibition constant (Ki) is 19.1 nM. Besides, in data set [8], the EC50 was found to be 3.24 nM, the Emax was 93% and the “Functional activity at CB1R (in words)” value is “agonist”.
For the compound `CCC(CC)(NC(=O)c1cc(-c2cc(C(F)(F)F)ccc2C(F)(F)F)n(C[C@H]2CCCO2)c1C)C(=O)NCCOCCOCCNC(=O)OC(C)(C)C` [Compound 22b, tert-Butyl (R)-(1-(5-(2,5-Bis(trifluoromethyl)phenyl)-2-methyl-1-((tetrahydrofuran-2-yl)methyl)-1H-pyrrol-3-yl)-3,3-diethyl-1,4-dioxo-8,11-dioxa-2,5-diazatridecan-13-yl)carbamate], the “hCB2R % displacement at 10 µM” value in [6] came to 22 ± 9%. Moreover, the Ki was above 10000 nM in [6] (setting [11]) and 811 nM in data set [7] (CHO membranes stably expressing human CB1R, means of three experiments, read-out: hCB1R Ki). In addition, the IC50 in [2] was 1000 nM; in [8] (read-out: Functional activity (cAMP assay) IC50) it was 131 nM. Further, the Emax in data set [2] is -105%; in [8], -69%. For the same compound, the “Functional activity at CB1R (in words)” value in [8] was “inverse agonist”.
As for `CCC(CC)(NC(=O)c1nn(-c2ccc(Cl)cc2Cl)c(-c2ccc(Cl)cc2)c1C)C(=O)NCCOCCOCCNC(=O)OC(C)(C)C` [Compound 23b, tert-Butyl (1-(5-(4-Chlorophenyl)-1-(2,4-dichlorophenyl)-4-methyl-1H-pyrazol-3-yl)-3,3-diethyl-1,4-dioxo-8,11-dioxa-2,5-diazatridecan-13-yl)carbamate], the “hCB2R % displacement at 10 µM” value in [6] worked out at 44 ± 5%. Moreover, the figures for the inhibitory constant (Ki) in data set [6] (setting [12]) and in [7] (setting [13]) were above 10000 nM and 139 nM, respectively. Besides, the figures for the concentration for half-maximal inhibition (IC50) in data set [2] and in data set [8] were 1580 nM and 64.6 nM, respectively. Also, the Emax in [2] was -96%; in data set [8], -44%. The “Functional activity at CB1R (in words)” value in data set [8] is “inverse agonist”.
Take `CCC(CC)(NC(=O)c1cc(-c2cc(C(F)(F)F)ccc2C(F)(F)F)n(C[C@H]2CCCO2)c1C)C(=O)NCCOCCOCCNc1ccc([N+](=O)[O-])c2nonc12` [Compound 28, (R)-5-(2,5-Bis(trifluoromethyl)phenyl)-2-methyl-N-(3-((2-(2-(2-((7-nitrobenzo[c][1,2,5]oxadiazol-4-yl)amino)ethoxy)ethoxy)ethyl)carbamoyl)pentan-3-yl)-1-((tetrahydrofuran-2-yl)methyl)-1H-pyrrole-3-carboxamide]: the “hCB2R % displacement at 10 µM” value in data set [6] is 41 ± 2%. In data set [6] (setting [11]), the Ki was above 10000 nM. For the same compound, in data set [9], the “Abs (absorbance maximum)” value is 475 nm, the “Em (emission maximum)” value came to 550 nm and the “QY (quantum yield)” value is given as 1.3%. In data set [7] (setting [13]), this compound returned a Ki of 97 nM. Also, the “Ki(CB2R)/Ki(CB1R)” value in data set [7] (radioligand binding Ki ratio) was above 103. For the same compound, in data set [2], the IC50 is 398 nM and the Emax is -97%. In [8], the Emax is -62%, the concentration for half-maximal inhibition (IC50) was found to be 16.6 nM and the “Functional activity at CB1R (in words)” value was “inverse agonists”.
On to `CCC(CC)(NC(=O)c1nn(-c2ccc(Cl)cc2Cl)c(-c2ccc(Cl)cc2)c1C)C(=O)NCCOCCOCCNc1ccc([N+](=O)[O-])c2nonc12` [Compound 30, 5-(4-Chlorophenyl)-1-(2,4-dichlorophenyl)-4-methyl-N-(3-((2-(2-(2-((7-nitrobenzo[c][1,2,5]oxadiazol-4-yl)amino)ethoxy)ethoxy)ethyl)carbamoyl)pentan-3-yl)-1H-pyrazole-3-carboxamide], for which the “hCB2R % displacement at 10 µM” value in [6] came out at 49 ± 3%. The compound further came in with an inhibition constant Ki in [6] (setting [12]) above 10000 nM. In addition, in data set [9], the “Abs (absorbance maximum)” value is 475 nm, the “Em (emission maximum)” value is listed as 570 nm and the “QY (quantum yield)” value was determined as 0.80%. In data set [7] (setting [13]), the Ki worked out at 428 nM. In addition, the “Ki(CB2R)/Ki(CB1R)” value in data set [7] (radioligand binding Ki ratio) is given as above 23. Also, in data set [8], the Emax was -41%, the concentration for half-maximal inhibition (IC50) was 60.3 nM and the “Functional activity at CB1R (in words)” value is listed as “Inverse agonist”.
`CCCCCCC(C)(C)c1cc(O)c2c(c1)OC(C)(C)[C@@H]1CC=C(CO)C[C@@H]21` [HU210]: in data set [10], the dissociation constant (Kd) was 3.04 nM, the koff was 0.00183 s⁻¹ and the kon is 623000 M⁻¹ s⁻¹. The inhibition constant (Ki) in data set [10] (Ki) was 2.08 nM and 1.26 nM. This compound showed an inhibitory constant (Ki) in [10] (pKi) of 2.04 nM. The residence time in [10] (read-out: RT (residence time)) was 9.1 min.
